Experimental data reported in paper PMC5608352, “Formyl peptide derived lipopeptides disclose differences between the receptors in mouse and men and call the pepducin concept in question” (PLoS ONE, 2017).
Entries after “also recorded” stand apart in the source; their conditions may differ. No end group written: not given here. *: point of attachment. Palmitoyl = CCCCCCCCCCCCCCCC(=O)*

Assays:
Fpr2 [1] = target: T1, Fpr2 (Mus musculus, UniProt O88536); test: Inhibition of F2Pal16-induced superoxide release, WT mouse neutrophils; format: cell-based; details: Boc2 2 μM or peptidomimetic inhibitor 1 μM (five experiments), or mF2Pal16 500 nM against F2Pal16 500 nM (three experiments); 5 min pre-incubation
T1 construct: WT mouse neutrophils (5 x 10^4 cells) were pre-incubated without (solid line) or with mF2Pal16; endogenous in cells; host or cells: bone marrow neutrophils of C57BL/6 wild-type mice, TNF-alpha primed
T1 sequence (O88536 1-351): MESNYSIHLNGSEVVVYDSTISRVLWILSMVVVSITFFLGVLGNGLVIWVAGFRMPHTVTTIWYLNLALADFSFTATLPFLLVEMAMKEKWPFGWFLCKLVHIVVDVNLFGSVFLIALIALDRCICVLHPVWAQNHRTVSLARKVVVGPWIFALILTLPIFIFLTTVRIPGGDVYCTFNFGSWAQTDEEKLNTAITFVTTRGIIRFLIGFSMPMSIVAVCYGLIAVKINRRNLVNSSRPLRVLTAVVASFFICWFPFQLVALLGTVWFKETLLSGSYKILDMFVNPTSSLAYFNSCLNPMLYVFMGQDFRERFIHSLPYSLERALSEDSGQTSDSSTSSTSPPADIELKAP
Text: Mice (8–12 weeks of age) were killed by cervical dislocation, the femurs and tibias were removed and freed of soft tissue attachments, and the extreme distal tip of each extremity was cut off. KRG without Ca^2+ and Mg^2+ (KRG-) was forced through the bone by using a 1-mL syringe with a 27-gauge needle. After dispersing cell clumps and removing the debris, the bone marrow granulocytes were isolated according to an earlier described procedure with some modifications. Briefly, a cell suspension in 2 mL of KRG- was laid on top of a three-layer Percoll gradient (1.095, 1.085, and 1.070 g/mL). The density of each Percoll solution was verified using density marker beads. After centrifugation at 500 × g for 30 min at 4°C in a swinging bucket rotor, the lowest band (1.085/1.095 g/mL interface) was collected as the neutrophil fraction. After washing with KRG-, remaining red blood cells were eliminated by hypotonic lysis. After a final wash with KRG-, the cells were resuspended in KRG. The cell number and population of bone marrow cells were determined by flow cytometry based on forward scatter (size) and side scatter (density) localization.
(§1) NADPH-oxidase activity was determined using an isoluminol and HRP-enhanced chemiluminescence (CL) system that allow for the determination of superoxide production. The CL activity was measured in a six-channel Biolumat LB 9505 apparatus (Berthold Co., Wildbad, Germany), using disposable 4-mL polypropylene tubes with 1 mL reaction mixture. […] The light emission was recorded continuously over time and presented as superoxide production (in arbitrary light units, cpm x10^-6) as a function of time (min). The activity before stimulus addition was recorded as basal line and this activity was not changed in vehicle control samples. […]
Data analysis was performed using Graph Pad Prism 7.0. The EC50/IC50 values were determined from experiments in which the activities were normalized to the response induced by maximal response or induced by agonist in the absence of inhibitor. […]

Fpr2^-/- neutrophils = test: Inhibition of F2Pal16-induced superoxide release, Fpr2^-/- mouse neutrophils; format: cell-based; details: Boc2 2 μM, 5 min pre-incubation; F2Pal16 500 nM
Text: (§2) C57BL/6 wild-type mice were purchased from Charles River Laboratories and Fpr2^−/− mice generated as described previously, were generously provided by Dr Ji Ming Wang, Frederick National Laboratory for Cancer Research, USA. Mice were kept under standard temperature and light conditions and fed laboratory chow and water ad libitum, at the Department of Rheumatology and Inflammation Research, University of Gothenburg. Sex matched WT and Fpr2^-/- animals (age 8–10 weeks) were used to isolated bone marrow derived neutrophils. The studies performed were approved by the Ethical Committee for Animal Experimentation, Göteborg, Sweden.
(§3) Mice (8–12 weeks of age) were killed by cervical dislocation, the femurs and tibias were removed and freed of soft tissue attachments, and the extreme distal tip of each extremity was cut off. […] The cell number and population of bone marrow cells were determined by flow cytometry based on forward scatter (size) and side scatter (density) localization.
(§4) NADPH-oxidase activity was determined using an isoluminol and HRP-enhanced chemiluminescence (CL) system that allow for the determination of superoxide production. The CL activity was measured in a six-channel Biolumat LB 9505 apparatus (Berthold Co., Wildbad, Germany), using disposable 4-mL polypropylene tubes with 1 mL reaction mixture. […]

Fpr1 = test: Inhibition of fMIFL-induced superoxide release, Fpr2^-/- mouse neutrophils; format: cell-based; details: Boc2 2 μM, 5 min pre-incubation; fMIFL 10 nM
Text: as §2, §3, §4

Fpr2 [2] = target: T1, Fpr2; parameters: method as in PMID 27614010; details: ref [12]; cited from earlier work
Text: When looking at the FPRs in different species it is clear that the receptor family has a complex evolutionary history, as illustrated by the fact that the number of genes in the family vary markedly in mouse and man. […] As different mouse models constitute important tools for translational studies aiming to understa ... || Genetically modified mouse strains and mouse disease models provide excellent tools to study the function of neutrophil FPRs in vivo. Such studies have indicated Fprs (in particular Fpr2) as important regulators of the physiological processes leading to resolution of inflammation. However, a direct translation of mouse data to human studies is hampered due to the distant phylogenetic relationship between mouse and human receptors. In addition to the different number of Fpr genes in mice and humans and an incomplete understanding of the evolutionary relationship between human FPRs ...

FPR2 [3] = test: Inhibition of F2Pal16 (FPR2 activating pepducin)-induced superoxide release, human neutrophils; format: cell-based; details: PBP10 1 μM or CysH 1 μM, 5 min pre-incubation; F2Pal16 1 μM; five experiments
Text: Human peripheral blood neutrophils were isolated from buffy coats from healthy blood donors using dextran sedimentation and Ficoll-Paque gradient centrifugation as described. The remaining erythrocytes were disrupted by hypotonic lysis and the neutrophils were washed twice, suspended in KRG and, stored on melting ice until use. This isolation process permits cells to be purified with minimal granule mobilization. The buffy coats were obtained from the blood bank at Sahlgrenska University Hospital. Ethics approval was not needed since the buffy coats were provided anonymously and could not be traced back to a specific individual. This is in line with Swedish legislation section code 4§ 3p SFS 2003:460 (Lag om etikprövning av forskning som avser människor).
as §1

[4] = target: formyl peptide receptor Fpr2, mouse (mouse (endogenous in bone marrow neutrophils)) (UniProt O88536)
[5] = target: formyl peptide receptor Fpr2, mouse (mouse (endogenous in bone marrow neutrophils)) (UniProt O88536); remark: listed apart in the source

Boc-FLFLF [Boc2, Fpr1 antagonist]
effect of inhibitor on F2Pal16 response, WT mouse neutrophils (Fpr2 [1]): no effect on the pepducin response
effect of inhibitor on F2Pal16 response, Fpr2^-/- neutrophils (Fpr2^-/- neutrophils): insensitive to Boc2; also recorded: no effect on the pepducin response
effect of inhibitor on fMIFL response, Fpr2^-/- neutrophils (Fpr1): completely abolished

Cyclosporin H
activity at mouse Fprs (earlier work) (Fpr2 [2]): lack effects on their mouse counterparts
effect of inhibitor on F2Pal16 response, human neutrophils (FPR2 [3]): not by the FPR1 inhibitor cyclosporine H

B1: F2Pal16 pepducin (Pal-…) (peptide)
peptide: Palmitoyl-KIHKKGMIKSSRPLRV
EC50 of superoxide release by wild-type mouse neutrophils, dose-response of F2Pal16 (maximum at 1 uM) [4]: 300 nM

B2: F1Pal16 pepducin (Pal-…) (peptide)
peptide: Palmitoyl-KIHKQGLIKSSRPLRV
EC50 of superoxide release by wild-type mouse neutrophils, dose-response of F1Pal16 [5]: 300 nM
